This is an account of results in patent US8263623B2, “Triazol derivatives useful for the treatment of diseases” (Pfizer Inc., priority 2008, dated 2012).

In test [1] the target is human adrenergic β2 receptor (Homo sapiens, UniProt P07550). Briefly: hβ2 cAMP assay: whole cell cAMP assay in CHO cells expressing the hβ2 receptor. Conditions: CHO cells recombinantly expressing human β2 receptor; for Emax: agonist efficacy, 100 nM Formoterol control; for EC50: agonist potency. The format is cell-based. The source says: (§1) [formula] where IC50 is the concentration of unlabelled drug which inhibits by 50% the specific radioligand binding. [L] is the free radioligand concentrations and KD and Ki are the equilibrium dissociation constants of the radioligand and unlabelled drug respectively. Functional Assessment of Agonist Potency and Efficacy Using a Whole cell cAMP Assay in CHO Cells Expressing the hβ2 Receptor Cell Culture
human adrenergic β2 receptor, sequence (P07550 whole entry): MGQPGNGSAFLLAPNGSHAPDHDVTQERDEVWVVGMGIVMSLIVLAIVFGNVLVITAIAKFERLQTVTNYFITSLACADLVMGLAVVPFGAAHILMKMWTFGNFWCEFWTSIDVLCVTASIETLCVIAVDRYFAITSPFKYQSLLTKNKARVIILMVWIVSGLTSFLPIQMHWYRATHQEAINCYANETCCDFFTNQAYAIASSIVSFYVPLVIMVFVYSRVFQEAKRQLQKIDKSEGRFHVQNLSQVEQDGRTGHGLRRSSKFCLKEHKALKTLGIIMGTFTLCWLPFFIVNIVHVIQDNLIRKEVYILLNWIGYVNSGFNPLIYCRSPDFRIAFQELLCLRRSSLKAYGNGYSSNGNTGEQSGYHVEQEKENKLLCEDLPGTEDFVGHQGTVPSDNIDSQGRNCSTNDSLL
CHO (Chinese Hamster Ovary) cells recombinantly expressing the human adrenergic β2 receptor were maintained in growth media composed of F12:DMEM (Gibco 21331-020) containing 10% Foetal Bovine Serum (FBS: Sigma F4135), 10 μg/ml puromycin (Sigma P8833), 0.1 mg/ml Geneticin G418 (Sigma G7034) and 2 mM L-glutamine (Sigma G7513). The cells were kept in sterile conditions at 37° C., in an atmosphere containing 5% CO2.
Cells were harvested for assay when they reached 80-90% confluency using trypsin 0.25% (Sigma T4049) incubated with the cells for 5 min at 37° C. in an atmosphere containing 5% CO2. Detached cells were collected in warmed growth media (composition described above), and re-suspended in assay media (F12:DMEM (Gibco 21331-020) containing 1% Foetal Bovine Serum (FBS: Sigma F4135) and 2 mM L-glutamine (Sigma G7513)) to give a viable cell concentration of 0.25×10^6 cells/ml. 100 μl of this suspension was added to each well of a tissue culture treated 96 well view-plate (PerkinElmer 6005181) and the plate incubated in an atmosphere containing 5% CO2 at 37° C. overnight. The following day, cells were washed (4×200 μl, Skatron Skanstacker 300) with Phosphate Buffered Saline (PBS). The plates were then pat dried and the media replaced with 50 μl PBS plus 0.5 mM isobutylmethylxanthine (IBMX) (Sigma I5879) before returning to the incubator for 30 mins. The PBS plate wash procedure was repeated, followed by the addition of 50 μl PBS plus 0.5 mM IBMX and 50 μl PBS plus 2% DMSO and the plates returned to the incubator for 30 mins. Concentration ranges of test compounds were prepared in PBS containing 2% DMSO. The PBS plate wash procedure was repeated, and then 50 μl PBS plus 0.5 mM IBMX was added to the assay plates, followed by the addition of 50 μl of each compound test concentration to the appropriate well. 50 μl per well of 2% DMSO or 200 nM Formoterol was added to the control wells, giving a final assay concentration of 1% DMSO or 100 nM Formoterol. Plates were returned to the incubator for a further 30 mins. At the end of the incubation period the PBS plate wash procedure was repeated a final time as described above. The plates were pat dried and 30 μl per well PBS added followed by 40 μl per well cAMP II ED/Substrate mix and 40 μl per well cAMP II EA-Ab/lysis mix (DiscoverX 90-0034-03). The plates were then incubated in the dark for a minimum of 4 hours at room temperature. The plates were read using a Fusion plate reader (luminescence protocol, each well read for 1 second). Concentration effect curves were plotted and EC50 & Emax values determined using a 4-parameter sigmoid fit generated using an in-house data analysis programme. Formoterol and salmeterol were run in every assay as reference standards.
(cAMP levels reflect the balance of adenylyl cyclase and phosphodiesterase activity.)

Test [2] addresses human muscarinic M3 receptor (Homo sapiens, UniProt P20309). Briefly: hM3 competition binding assay (3H-NMS) on CHO cell membranes. The settings on record: 24 hr at RT, IC50 corrected by Cheng-Prussoff equation. As for the experimental part: Binding Affinity Assessment at the Human Recombinant M3 Muscarinic Receptor
Cell Pellets from CHO (Chinese Hamster Ovary) cells recombinantly expressing the human muscarinic M3 receptor were homogenised in 20 mM HEPES (pH7.4) and centrifuged at 48000×g for 20 min at 4° C. The pellet was re-suspended in buffer and the homogenisation and centrifugation steps repeated. The resulting pellet was re-suspended in 1 ml buffer per 1 ml original packed cell volume and the homogenisation step repeated. Protein estimation was carried out on the suspension and 1 ml aliquots of ˜1 mg/ml frozen at −80° C.
hM3 Competition Binding Assay Protocol
Membranes (5 μg/well) were incubated with ^3H-NMS (at a concentration 5×KD) plus/minus test compound for 24 hr at RT (room temperature) in a 1 ml polystyrene 96-well deep well block. The final assay volume was 200 μl, comprising of: 20 μl plus/minus test compound; 20 μt, ^3H-NMS (Perkin Elmer NEN 636) and 160 μl membrane solution. Total Binding was defined with 0.1% DMSO; Non-Specific Binding was defined with 1 μM Atropine. Assay buffer was 20 mM Hepes (pH 7.4).
Once all assay components were added, plates were covered and incubated at room temperature for 24 hrs with shaking. The assay was terminated by rapidly filtering through GF/B Unifilter plates pre-soaked with 0.5% polyethylenimine, using a Packard filtermate harvester, the filter plate was then washed with 3×1 ml 4° C. assay buffer. The filter plates were dried at 45° C. for 1 hour. The bottoms of the filter plates were sealed and 50 μl/well of Microscint ‘0’ added, the top of the plates were sealed with a Topseal. Following 90 mins, the plates were read on an NXT Topcount (1 minute read time per well).
The resulting data was expressed as a percentage of the specific binding (Specific binding=Total binding−Non-Specific Binding). % specific binding versus test compound concentration was plotted to determine an IC50 from a sigmoid curve using an in-house data analysis programme. IC50 values corrected to Ki values by applying the Cheng-Prussoff equation:
as §1

human muscarinic M3 receptor, sequence (P20309 whole entry): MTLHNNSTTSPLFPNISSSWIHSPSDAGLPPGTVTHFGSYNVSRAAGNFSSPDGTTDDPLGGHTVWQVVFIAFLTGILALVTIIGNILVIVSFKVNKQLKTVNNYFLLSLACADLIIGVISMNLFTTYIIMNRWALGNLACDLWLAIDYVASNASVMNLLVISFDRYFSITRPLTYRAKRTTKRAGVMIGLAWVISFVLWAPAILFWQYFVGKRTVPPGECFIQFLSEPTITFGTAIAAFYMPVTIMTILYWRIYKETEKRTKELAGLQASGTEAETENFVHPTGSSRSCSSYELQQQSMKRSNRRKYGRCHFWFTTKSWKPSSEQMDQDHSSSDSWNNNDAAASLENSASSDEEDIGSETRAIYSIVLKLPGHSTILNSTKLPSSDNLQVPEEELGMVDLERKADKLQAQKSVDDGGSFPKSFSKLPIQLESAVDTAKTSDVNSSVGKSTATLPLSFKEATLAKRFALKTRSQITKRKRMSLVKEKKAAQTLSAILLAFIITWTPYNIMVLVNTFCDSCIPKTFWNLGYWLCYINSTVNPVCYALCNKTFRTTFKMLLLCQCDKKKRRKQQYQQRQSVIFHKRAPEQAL

Take `O=c1ccc2c([C@@H](O)CNCCCCCCCCCN3CCC(Cn4cnc([C@](O)(c5ccccc5)C5CCCCC5)n4)CC3)ccc(O)c2[nH]1` [Example 1, 5-[(1R)-2-({9-[4-({3-[(R)-cyclohexyl(hydroxy)phenylmethyl]-1H-1,2,4-triazol-1-yl}methyl)piperidin-1-yl]nonyl}amino)-1-hydroxyethyl]-8-hydroxyquinolin-2(1H)-one]: in test [1], the Emax (usually the greatest response seen or fitted, relative to the assay's reference) is 103% and the EC50 – broadly, the concentration needed to bring the measured effect to its halfway point – was determined as 14 nM. In addition, affinity in test [2] was put at a Ki of 0.57 nM.
With `O=c1ccc2c([C@@H](O)CNCCc3ccc(CCN4CCC(Cn5cnc(C(O)(c6ccccc6)c6ccccc6)n5)CC4)cc3)ccc(O)c2[nH]1` [Example 5, 8-hydroxy-5-[(1R)-1-hydroxy-2-{[2-(4-{2-[4-({3-[hydroxy(diphenyl)methyl]-1H-1,2,4-triazol-1-yl}methyl)piperidin-1-yl]ethyl}phenyl)ethyl]amino}ethyl]quinolin-2(1H)-one], in test [1], the Emax was 95% and the half-maximal effective concentration (EC50) worked out at 116 nM. Besides, affinity in test [2] was put at a Ki of 2.49 nM.
In the same order, the values of `O=c1ccc2c([C@@H](O)CNCCc3ccc(CCN4CCC(Cn5cnc([C@](O)(c6ccccc6)C6CCCCC6)n5)CC4)cc3)ccc(O)c2[nH]1` [Example 2, 5-[(1R)-2-{[2-(4-{2-[4-({3-[(R)-cyclohexyl(hydroxy)phenylmethyl]-1H-1,2,4-triazol-1-yl}methyl)piperdin-1-yl]ethyl}phenyl)ethyl]amino}-1-hydroxyethyl]-8-hydroxyquinolin-2(1H)-one] are 106%, 21.6 nM and 0.153 nM.
On the same counts, the results for `O=c1ccc2c([C@@H](O)CNCCCCCCCCCN3CCC(Cn4cnc(C(O)(c5ccccc5)C5CCCCC5)n4)CC3)ccc(O)c2[nH]1` (stereo partly drawn) [Example 3, 5-[(1R)-2-({9-[4-({3-[cyclohexyl(hydroxy)phenylmethyl]-1H-1,2,4-triazol-1-yl}methyl)piperdin-1-yl]nonyl}amino)-1-hydroxyethyl]-8-hydroxyquinolin-2(1H)-one] are 91%, 20.6 nM and 0.924 nM.
On the same counts, the results for `O=c1ccc2c([C@@H](O)CNCCCCCCCCCN3CCC(Cn4cnc(C(O)(c5ccccc5)c5ccccc5)n4)CC3)ccc(O)c2[nH]1` [Example 4, 8-hydroxy-5-[(1R)-1-hydroxy-2-({9-[4-({3-[hydroxy(diphenyl)methyl]-1H-1,2,4-triazol-1-yl}methyl)piperdin-1-yl]nonyl}amino)ethyl]quinolin-2(1H)-one] are 90%, 13 nM and 0.505 nM.
